From patent publication US10118947B2, “Modulation of structured polypeptide specificity” (BICYCLE THERAPEUTICS LIMITED, priority 2013, dated 2018)
Like-named read-outs stand apart in the source and are kept apart here. Numbered stars: 1 amine (or outer) side, 2 acyl side, 3 side chain; on linkers, the order of the positions; unused ones are H or OH. Bridge positions count the residues as written; N and C are the ends. Square brackets hold non-standard residues; d marks the D form. Peptide text beside a SMILES is read from it. Phe(4-guanidino) = N=C(N)Nc1ccc(C[C@H](N)C(=O)O)cc1; TBMB = c1c(C[*:1])cc(C[*:3])cc1C[*:2]; NMeR = CN[C@@H](CCCNC(=N)N)C(=O)O; hArg = N=C(N)NCCCC[C@H](N)C(=O)O; Aze = O=C(O)[C@@H]1CCN1

How the values were obtained:
rat plasma Kallikrein [1] = biological target: T1, rat plasma Kallikrein (Rattus norvegicus, UniProt P14272)
T1 construct: polyhistidine tag (N, cleaved yes); proTEV cleavage site (pro-peptide linker) (N, cleaved yes); made in house; host or cells: HEK-293 (suspension-adapted)
T1 sequence (P14272 391-638 limits assumed): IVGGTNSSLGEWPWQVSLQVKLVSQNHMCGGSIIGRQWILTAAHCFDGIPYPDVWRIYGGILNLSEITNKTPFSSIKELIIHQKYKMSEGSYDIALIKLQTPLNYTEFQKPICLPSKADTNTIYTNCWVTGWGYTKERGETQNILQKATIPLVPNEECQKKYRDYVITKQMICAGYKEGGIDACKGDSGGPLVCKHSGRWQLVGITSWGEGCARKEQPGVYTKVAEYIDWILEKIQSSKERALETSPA

[2] = Table 1; Method #1; cited from earlier work
[3] = Quantitative plasma stability Method #3 (LC-MS, 95% plasma), rat plasma; type: in vitro ADME
Description: (§1) To obtain plasma stability quantitatively, peptide stock solutions (1 mM in DMSO) were shipped to Biofocus, UK, who performed the analysis. Peptides were diluted to 100 uM with water, and diluted 1:20 in plasma (5 uM final concentration, with the plasma at 95%), sampled as appropriate, precipitated as above, and quantified using a Waters Xevo TQ-MS.

[4] = Table 1; Method #3; cited from earlier work
[5] = Quantitative plasma stability Method #3 (LC-MS, 95% plasma), human plasma; type: in vitro ADME; conditions: Table 2, ex vivo human plasma, read-out: Human Plasma Stability (t½ in hrs) (converted)
Description: as §1

[6] = Plasma stability profiling Method #1 (MALDI-TOF, 35% plasma), rat plasma; type: in vitro ADME; conditions: for stability in rat plasma compared to wildtype peptide: MALDI TOF assay (Methods #1 and #2), t=0, 21 and 46 hrs
Procedure, shortened: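 Qualitative test: 200 µM peptide incubated at 37 °C in 35% rat or human citrated plasma supplemented with PBS, sampled at 0, 3, 24 h then daily up to 10 days. Parent mass tracked by MALDI-TOF; value is time until parent peptide no longer detectable.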

[7] = Plasma stability profiling Method #1 (MALDI-TOF, 35% plasma), human plasma; type: in vitro ADME; conditions: MALDI TOF assay (Methods #1 and #2), t=0, 21 and 46 hrs
Description: A rapid plasma stability profiling assay was developed that employed mass spectrometric detection (MALDI-TOF, Voyager DE, Applied Biosystems) of the parent mass, until the time when the parent peptide mass was no longer observable. Specifically, 200 uM of peptide was incubated in the presence of 35% rat or human plasma (Sera labs, using citrate as anticoagulant) at 37 deg C., which was supplemented with 1×PBS (derived from a 10×PBS Stock, Sigma). […] Samples were frozen at −80 deg C. until the time of analysis. For mass spectrometric analysis that determines the approximate detection window of the peptide, the acetonitrile:H2O-diluted sample of a given time point was spotted directly (0.7 uL) onto the MALDI plate. Matrix (alpha-cyanocinnamic acid, Sigma, prepared as a saturated solution in 1:1 acetonitrile:water containing 0.1% trifluoroacetic acid) was layered over the sample (1 uL). At a similar laser intensity setting on the MALDI TOF, the time could then be determined until parent peptide was no longer detectable. It should be noted that this is a qualitative assay serves to detect relative changes in plasma stability.

[8] = Intravenous pharmacokinetics in Sprague Dawley rats; type: in vivo; conditions: rat; for half-life: iv, 5.2 mg/kg
Description: Peptides were applied as intravenous boli in PBS-buffered solution at 1.02 mg/mL (containing 2.9% DMSO) at 5.2 mg/kg to Sprague Dawley rats, and serial blood samples were taken from each animal via temporary indwelling tall vein cannulae at 5, 10, 20, 30, 60, 120, and 240 minutes post dose, and transferred to EDTA tubes for plasma generation. Data was acquired for peptide “all D Ac-06-34-18” from 3 rats, for “Ac-(06-34-18) Phe2 Aze3 Tyr4 HArg5 Ala(ψCH2NH)6” from two rats, and for “Ac-(06-34-18) Phe2 Aze3 Tyr4 HArg5 D-Asp9” from two rats.
Plasma samples were then treated with 3 volumes of a 1:1 mixture of acetonitrile and methanol, precipitated proteins were removed by centrifugation, and the supernatant was analysed by UPLC-MS/MS.
Quantification for peptide content in the samples was by reference to a calibration line prepared in control rat plasma. Pharmacokinetic parameters were determined by non-compartmental analysis using the software package PK Solutions 2.0 from Summit Research Services.

human plasma Kallikrein = biological target: T2, human plasma Kallikrein (Homo sapiens, UniProt P03952); assay: Functional enzyme inhibition assay with fluorogenic substrate Z-PheArg-AMC, human plasma Kallikrein; type: biochemical; conditions: for F (Kivar/KiWT): ratio of Ki to wild type
T2 construct: purchased Stratech, UK
T2 sequence (P03952 20-638): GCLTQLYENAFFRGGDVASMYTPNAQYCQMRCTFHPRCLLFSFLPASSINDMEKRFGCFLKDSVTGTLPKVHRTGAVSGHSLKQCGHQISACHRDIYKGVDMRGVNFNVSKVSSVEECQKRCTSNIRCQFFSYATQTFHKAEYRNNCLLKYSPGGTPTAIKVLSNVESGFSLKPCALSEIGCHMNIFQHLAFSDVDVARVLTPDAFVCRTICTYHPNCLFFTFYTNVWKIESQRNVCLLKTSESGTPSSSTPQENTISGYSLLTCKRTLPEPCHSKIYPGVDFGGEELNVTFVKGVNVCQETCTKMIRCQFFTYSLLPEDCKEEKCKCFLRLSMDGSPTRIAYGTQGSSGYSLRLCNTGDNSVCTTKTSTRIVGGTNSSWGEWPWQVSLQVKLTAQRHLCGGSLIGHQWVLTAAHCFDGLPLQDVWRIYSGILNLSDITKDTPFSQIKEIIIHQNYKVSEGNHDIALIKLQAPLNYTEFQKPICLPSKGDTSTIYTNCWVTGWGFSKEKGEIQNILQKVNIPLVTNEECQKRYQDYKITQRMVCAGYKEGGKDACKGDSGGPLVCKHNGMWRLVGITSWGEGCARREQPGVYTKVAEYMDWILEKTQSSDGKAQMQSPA
Procedure, shortened: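 Human plasma kallikrein at 26.5 pM was preincubated 15 minutes with test peptide in Tris/NaCl/MgCl2/CaCl2/BSA buffer pH7.4 at 25° C, then Z-PheArg-AMC added to 100 μM final in 4% DMSO.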

[9] = Plasma stability / fragment profiling Method #2 (MALDI-TOF, 95% plasma), human plasma; type: in vitro ADME
Procedure, shortened: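 Peptide at 50 uM final in 95% human plasma without PBS; timed samples frozen at −80 °C, then extracted with 1:1 acetonitrile:methanol. Supernatant mixed with 30 mM ammonium bicarbonate and analysed by MALDI-TOF; qualitative fragment profiling of relative stability over time.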

rat plasma Kallikrein [10] = biological target: T1, rat plasma Kallikrein; assay: Functional enzyme inhibition assay with fluorogenic substrate Z-PheArg-AMC, rat plasma Kallikrein; type: biochemical; conditions: Table 26b, loop 1 and loop 2 modified derivatives
Description: Functional enzyme assays were conducted in 10 mM Tris HCl, 150 mM NaCl, 10 mM MgCl2, 1 mM CaCl2) and 1 mg/mL BSA (all Sigma UK) pH7.4 at 25° C. in solid black 96 well plates. Briefly 26.5 pM human plasma Kallikrein (purchased from Stratech, UK) or 500 pM rat plasma Kallikrein (expressed and purified in house) were incubated in the absence or presence of increasing concentrations of test peptide for 15 minutes before addition of the fluorogenic substrate Z-PheArg-AMC (Enzo Lifesciences UK) to a final assay concentration of 100 μM in 4% DMSO. Release of AMC was measured using a Pherastar FS (BMG Labtech), excitation 360 nm, emission 460 nm. The rate of the linear phase of the reaction, typically 5 to 45 minutes, was calculated in MARS data analysis software (BMG labtech). The rate was then used to calculate the IC50 and Ki in Prism (GraphPad). A four parameter inhibition non-linear regression equation was used to calculate the IC50.
Peptides were dissolved as the TFA-salts in their powder form, and stock solutions were usually prepared in water. All solutions were centrifuged and filtered ([…] syringe filters) prior absorption measurement at 280 nm. Extinction coefficients were calculated based on the Trp/Tyr content of the peptide, and that of TMB (the TMB core, when contained in a peptide, has an ε of ˜300 M^−1cm^−1). For peptides containing non-natural amino acids with suspected chromophoric properties (i.e. NorHar, 4PhenylPro, 3Pal, 4Pal, Tic, 4GuanPhe, 4,4-BPAI, 3,3-DPA, 1NAI, 2NAI, 4BenzylPro, Ind) concentrations were determined by weighing the powder and dissolving the peptide in a defined quantity of water.

[11] = Table 1; read-out: Ki (nM) (rat kallikrein); cited from earlier work
[12] = rat plasma (95%), Table 2, ex vivo rat plasma, Method #3, read-out: Rat Plasma Stability (t½ in hrs) (converted)
[13] = Table 23, comparative stabilities estimated according to method #1
[14] = Sprague Dawley, plasma, intravenous bolus 5.2 mg/kg, read-out: elimination half-life
[15] = Sprague Dawley, plasma, intravenous, read-out: t1/2 elimination

Row | stability in human plasma compared to wildtype peptide [7] | half-life [8, 14] [h] | half-life [8, 15] [h] | stability in rat plasma compared to wildtype peptide [6] | SMILES | Ki (rat plasma Kallikrein [1]; [11]) [nM] | Observable in rat plasma, for days [2] [days] | half-life at 5 uM [3, 12] [h] | t1/2 (hrs) in rat plasma [4] [h] | half-life at 5 uM ([5]; human plasma (95%)) [h] | Observable in rat plasma, for days [6, 13] [days] | t1/2 (hrs) in rat plasma ([3]; Table 23, method #3) [h] | other results
1 | – | – | – | – | CC(=O)N[C@H]1CSCc2cc3cc(c2)CSC[C@H](NC(=O)[C@H](Cc2ccc(NC(=N)N)cc2)NC(=O)[C@H](Cc2ccc(O)cc2)NC(=O)[C@@H]2CCCN2C(=O)[C@H](Cc2ccccc2)NC(=O)[C@H](CO)NC1=O)C(=O)N[C@@H](CC(C)C)C(=O)N[C@@H](Cc1c[nH]cn1)C(=O)N[C@@H](CCC(N)=O)C(=O)N[C@@H](CC(=O)O)C(=O)N[C@@H](CC(C)C)C(=O)N[C@H](C(N)=O)CSC3 [Ac-(06-34-18) Phe2 Tyr4 4GuanPhe5] (Ac-CSFPY[Phe(4-guanidino)]CLHQDLC-NH2; linker 1-7-13 via TBMB) | 0.6 | >10 | 5 | 5.0 | 2.9 | >10 | – | –
2 | remarkably enhanced stability | 0.8 | 0.8 | remarkably enhanced stability | CC(=O)N[C@H]1CSCc2cc3cc(c2)CSC[C@H](NC(=O)[C@H](CCCCNC(=N)N)NC(=O)[C@H](Cc2ccc(O)cc2)NC(=O)[C@@H]2CCN2C(=O)[C@H](Cc2ccccc2)NC(=O)[C@H](CO)NC1=O)C(=O)N[C@@H](C)CN[C@@H](Cc1c[nH]cn1)C(=O)N[C@@H](CCC(N)=O)C(=O)N[C@@H](CC(=O)O)C(=O)N[C@@H](CC(C)C)C(=O)N[C@H](C(N)=O)CSC3 | – | – | – | – | – | – | – | clearance ([8]; Sprague Dawley, plasma, intravenous bolus 5.2 mg/kg): 5.8 mL/min/kg; Clearance based on AUC0-∞ ([8]; intravenous): 6.2 mL/min/kg; Volume of distribution based on AUC0-∞ ([8]; intravenous): 0.44 L/kg
3 | – | – | – | – | CC(=O)N[C@H]1CSCc2cc3cc(c2)CSC[C@H](NC(=O)[C@H](CCCNC(=N)N)NC(=O)[C@H](Cc2ccc(O)cc2)NC(=O)[C@@H]2CCCN2C(=O)[C@H](Cc2ccccc2)NC(=O)[C@H](CO)NC1=O)C(=O)N[C@@H](CC(C)C)C(=O)N[C@@H](Cc1c[nH]cn1)C(=O)N[C@@H](CCC(N)=O)C(=O)N[C@@H](CC(=O)O)C(=O)N[C@@H](CC(C)C)C(=O)N[C@H](C(N)=O)CSC3 [Ac-(06-34-18) Phe2 Tyr4] (Ac-CSFPYRCLHQDLC-NH2; linker 1-7-13 via TBMB) | – | 2 | – | 0.9 | – | 2 | 0.9 | Ki (human plasma Kallikrein; Ki (nM) (human kallikrein), Table 26a, loop2 stability enhanced candidates): 0.9 nM; Ki (human plasma Kallikrein; Ki (nM) human Kai, Table 2): 0.42 nM; F (Kivar/KiWT) (human plasma Kallikrein; Table 3a): 1; F (Kivar/KiWT) (human plasma Kallikrein; Table 24b): 1; Ki (rat plasma Kallikrein [1]; read-out: Ki (nM) (rat kallikrein); Table 1; cited from earlier work): 7.6 nM; Rat Plasma Stability (t½ in hrs) ([3]; Table 2, ex vivo rat plasma, Method #3): 0.9 h; half-life at 5 uM ([3]; rat, plasma, method #3, read-out: half-life in rat plasma (t1/2) (converted)): 0.9 h; half-life at 5 uM [5]: 1.4 h; Observable in rat plasma, for days ([6]; Table 21, method #1): 2 days; Fragments (human plasma) ([9]; Table 3a, peptide fragments observed after incubation in human plasma): -LHQ; degradation / fragments in human plasma (in words) ([9]; running text and figure legends): fragments with His7-Gln8, Leu6, and Leu6-His7-Gln8 removed
4 | – | – | – | – | CC(=O)N[C@H]1CSCc2cc3cc(c2)CSC[C@H](NC(=O)[C@H](CCCNC(=N)N)N(C)C(=O)[C@H](Cc2ccc(O)cc2)NC(=O)[C@@H]2CCCN2C(=O)[C@H](Cc2ccccc2)NC(=O)[C@H](CO)NC1=O)C(=O)N[C@@H](CC(C)C)C(=O)N[C@@H](Cc1c[nH]cn1)C(=O)N[C@@H](CCC(N)=O)C(=O)N[C@@H](CC(=O)O)C(=O)N[C@@H](CC(C)C)C(=O)N[C@H](C(N)=O)CSC3 [Ac-(06-34-18) Phe2 Tyr4 NMeArg5] (Ac-CSFPY[NMeR]CLHQDLC-NH2; linker 1-7-13 via TBMB) | 64.3 | >10 | > 20 | >20 | 1.7 | >10 | – | Ki (human plasma Kallikrein; Table 2, read-out: Ki (nM) human Kai): 4 nM; half-life at 5 uM ([3]; rat, plasma, Table 23, method #3, read-out: t1/2 (hrs) in rat plasma (converted)): > 20 h
5 | – | – | – | – | CC(=O)N[C@H]1CSCc2cc3cc(c2)CSC[C@H](NC(=O)[C@H](CCCCNC(=N)N)NC(=O)[C@H](Cc2ccc(O)cc2)NC(=O)[C@@H]2CCCN2C(=O)[C@H](Cc2ccccc2)NC(=O)[C@H](CO)NC1=O)C(=O)N[C@@H](CC(C)C)C(=O)N[C@@H](Cc1c[nH]cn1)C(=O)N[C@@H](CCC(N)=O)C(=O)N[C@@H](CC(=O)O)C(=O)N[C@@H](CC(C)C)C(=O)N[C@H](C(N)=O)CSC3 [Ac-(06-34-18) Phe2 Tyr4 HomoArg5] (Ac-CSFPY[hArg]CLHQDLC-NH2; linker 1-7-13 via TBMB) | 16.2 | >10 | 12.2 | 12.2 | 2.1 | >10 | 12.2 | rat plasma stability enhanced by a factor ([3]; compared to parent Phe2 Tyr4 peptide): 13
6 | remarkably enhanced stability | ~0.45 | 0.45 | remarkably enhanced stability | CC(=O)N[C@H]1CSCc2cc3cc(c2)CSC[C@H](NC(=O)[C@H](CCCCNC(=N)N)NC(=O)[C@H](Cc2ccc(O)cc2)NC(=O)[C@@H]2CCN2C(=O)[C@H](Cc2ccccc2)NC(=O)[C@H](CO)NC1=O)C(=O)N[C@@H](CC(C)C)C(=O)N[C@@H](Cc1c[nH]cn1)C(=O)N[C@@H](CCC(N)=O)C(=O)N[C@H](CC(=O)O)C(=O)N[C@@H](CC(C)C)C(=O)N[C@H](C(N)=O)CSC3 (Ac-CSF[Aze]Y[hArg]CLHQ[dD]LC-NH2; linker 1-7-13 via TBMB) | – | – | – | – | – | – | – | Ki (human plasma Kallikrein; Table 26b, loop 1 and loop 2 modified derivatives, read-out: Ki (nM) (human kallikrein)): 0.9 nM; Ki (rat plasma Kallikrein [10]): 14 nM
